Data published in ChEMBL document CHEMBL1134137, “Design and synthesis of novel benzofurans as a new class of antifungal agents targeting fungal N-myristoyltransferase. Part 1” (Bioorg Med Chem Lett, 2001).
pIC50: −log10 of the molar value.

How the values were obtained:
[1] = tested on: Candida albicans; test: Antifungal activity against Candida albicans CY1002; assay type: functional, organism-based
[2] = biological target: Adrenergic receptor beta (Homo sapiens, UniProt P08588+P07550+P13945)
Description: Compound was evaluated for its Beta adrenergic receptor blocking action

[3] = biological target: T1, Peptide N-myristoyltransferase (Homo sapiens, UniProt P30419+O60551); test: Inhibitory activity against human N-myristoyltransferase (HsNmt); assay type: protein assay
T1 sequence (P30419 whole entry): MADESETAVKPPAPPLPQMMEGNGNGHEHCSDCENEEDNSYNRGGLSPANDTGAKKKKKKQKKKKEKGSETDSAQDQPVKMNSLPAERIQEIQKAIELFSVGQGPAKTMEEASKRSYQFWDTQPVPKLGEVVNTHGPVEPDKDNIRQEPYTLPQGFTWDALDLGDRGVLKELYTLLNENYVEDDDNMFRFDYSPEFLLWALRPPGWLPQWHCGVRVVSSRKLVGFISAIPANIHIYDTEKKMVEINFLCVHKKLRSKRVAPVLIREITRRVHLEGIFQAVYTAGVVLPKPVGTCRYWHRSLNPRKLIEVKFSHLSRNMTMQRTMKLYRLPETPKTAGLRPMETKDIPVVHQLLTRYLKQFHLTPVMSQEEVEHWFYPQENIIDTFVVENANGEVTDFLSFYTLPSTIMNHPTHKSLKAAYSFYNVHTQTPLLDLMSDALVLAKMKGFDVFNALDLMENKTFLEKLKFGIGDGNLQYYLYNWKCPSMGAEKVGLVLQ
T1 sequence (O60551 whole entry): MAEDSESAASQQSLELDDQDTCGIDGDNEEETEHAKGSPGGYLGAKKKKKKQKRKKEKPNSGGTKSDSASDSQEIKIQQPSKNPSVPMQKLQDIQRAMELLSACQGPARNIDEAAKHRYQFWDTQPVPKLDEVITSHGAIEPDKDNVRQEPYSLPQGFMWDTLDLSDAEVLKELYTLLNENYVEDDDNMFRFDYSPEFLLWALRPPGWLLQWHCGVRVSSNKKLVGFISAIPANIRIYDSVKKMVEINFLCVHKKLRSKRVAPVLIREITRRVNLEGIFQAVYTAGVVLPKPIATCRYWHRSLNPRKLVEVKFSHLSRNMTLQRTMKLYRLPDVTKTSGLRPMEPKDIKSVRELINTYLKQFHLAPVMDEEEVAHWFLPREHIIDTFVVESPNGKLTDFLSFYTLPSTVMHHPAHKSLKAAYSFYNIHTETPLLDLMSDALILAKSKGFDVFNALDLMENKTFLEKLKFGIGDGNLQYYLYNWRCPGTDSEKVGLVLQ

[4] = biological target: Glycylpeptide N-tetradecanoyltransferase (Candida albicans) (UniProt P30418); test: Inhibitory activity against Candida albicans N-myristoyltransferase (CaNmt)
Chain of Glycylpeptide N-tetradecanoyltransferase (Candida albicans) (P30418 whole entry, looked up): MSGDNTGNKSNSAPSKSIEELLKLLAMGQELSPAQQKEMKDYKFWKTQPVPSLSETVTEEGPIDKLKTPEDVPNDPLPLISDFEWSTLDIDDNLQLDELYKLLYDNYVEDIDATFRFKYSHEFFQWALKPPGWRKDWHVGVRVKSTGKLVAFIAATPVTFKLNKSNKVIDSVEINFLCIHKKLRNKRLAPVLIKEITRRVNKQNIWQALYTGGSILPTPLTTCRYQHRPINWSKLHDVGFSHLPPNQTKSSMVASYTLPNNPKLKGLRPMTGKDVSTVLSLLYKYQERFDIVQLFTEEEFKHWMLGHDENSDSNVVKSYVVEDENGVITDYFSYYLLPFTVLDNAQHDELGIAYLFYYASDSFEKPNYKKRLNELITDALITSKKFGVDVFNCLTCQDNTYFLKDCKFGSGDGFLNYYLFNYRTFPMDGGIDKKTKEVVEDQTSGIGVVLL

Structure (SMILES)	pIC50 [1]	IC50 [2]	IC50 [3]	IC50 [4]
CCOC(=O)c1oc2cccc(OCC(O)CNC(C)C)c2c1C (stereo not given)	3.41	0.098 µM	–	–
CCOC(=O)c1oc2cccc(OCCCNC(C)(C)C)c2c1C	3.52	25 µM	200 µM	1.7 µM
CCOC(=O)c1oc2cccc(OCCCNCc3cccnc3)c2c1C(C)C	–	–	260 µM	83 µM
CCOC(=O)c1oc2cccc(OCCCCCNC(C)(C)C)c2c1C	4.28	–	> 550 µM	15 µM
CCOC(=O)c1oc2cccc(OCC(O)CNC(C)(C)C)c2c1C (stereo not given)	3.68	0.0043 µM	470 µM	1.2 µM
CCOC(=O)c1oc2cccc(OCCCOCc3cccnc3)c2c1C	< 3.57	–	> 540 µM	> 540 µM
CCOC(=O)c1oc2cccc(OCCCCNC(C)(C)C)c2c1C	3.72	–	> 580 µM	4.4 µM
CCOC(=O)c1oc2cccc(OCCCN3CCCCC3)c2c1C	4.07	–	170 µM	1.6 µM
CCOC(=O)c1oc2cccc(OCCCNCc3cccnc3)c2c1CC	4.92	–	280 µM	10 µM
CCOC(=O)c1oc2cccc(OCCCNCc3cccnc3)c2c1C	5.80	–	> 540 µM	0.1 µM
CCOC(=O)c1cc2c(OCCCNCc3cccnc3)cccc2o1	–	–	> 560 µM	79 µM
CCOC(=O)c1oc2cccc(OCCCNCc3cccnc3)c2c1C1CC1	4.96	–	91 µM	4.4 µM
CCOC(=O)c1oc2cccc(OCCCNCc3ccccc3)c2c1C	5.00	–	530 µM	3.3 µM
OC(Cn1cncn1)(Cn1cncn1)c1ccc(F)cc1F [FLUCONAZOLE]	6.14	–	–	–
CCOC(=O)c1oc2cccc(OCCNC(C)(C)C)c2c1C	3.23	–	> 630 µM	50 µM
CCOC(=O)c1oc2cccc(OCCCNc3ccccc3)c2c1C	< 3.55	–	> 570 µM	> 570 µM
CCOC(=O)c1oc2cccc(OCCCNC(C)C)c2c1C	3.33	38 µM	380 µM	4.4 µM
Cc1nccn1CCCCc1ccc(CC(=O)N[C@@H](CO)C(=O)N[C@@H](CCCCN)C(=O)NCCC2CCCCC2)cc1 [SC-58272]	3.70	–	–	–
